Experimental data published in US20210330611A1, “THERAPY FOR NEUROLOGICAL DISEASES/DISORDERS” (priority 2020, published 2021).
Counter-ions that a name gives are not always drawn. Like-named read-outs stand apart in the source and are kept apart here. Where a SMILES comes first, the peptide text is derived from it. Bridges are numbered along the chain shown (N, C = ends). [ ]: non-standard residue; d: D form. The star is where a group is joined. Ileψ(thiazoline)Cys = CC[C@H](C)[C@H](N)C1=N[C@H](C(=O)*)CS1; dOrn = NCCC[C@@H](N)C(=O)O

What was measured:
[1] = tested on: primary rat microglia; assay: Cell toxicity (dead cells, size <150 μm2) in LPS assay; conditions: for LPS % cell toxicity: primary microglia HTS, LPS stimulation, decreased size (<150 μm^2) as marker of toxicity; for IC50: read-out: Cell Toxicity IC50 (uM) [LPS assay], LPS assay
[2] = tested on: primary rat microglia; assay: Cell toxicity (dead cells, size <150 μm2) in coated fibrin (cFib) assay; conditions: primary microglia HTS;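 on Fibrin % cell toxicity: share of dead cells sized under 150 µm2 at 10 µM in fibrin-stimulated microglia HTS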
[3] = tested on: fibrin- and LPS-induced microglia activation; assay: cells; assay type: cell-based, rat; conditions: for inhibition at 10 µM: Rattus norvegicus
[4] = tested on: LPS-induced microglia activation; assay: Image-based assay of LPS-induced microglia activation (HTS and dose response); assay type: cell-based, rat; conditions: Rattus norvegicus, Microglia; for inhibition at 10 µM: primary microglia HTS, LPS stimulation, read-out: LPS % inhibition
[5] = tested on: fibrin-induced microglia activation; assay: Image-based assay of fibrin-induced microglia activation (HTS and dose response); assay type: cell-based, rat; conditions: for IC50 / inhibition at 10 µM: Rattus norvegicus, Microglia; for inhibition at 10 µM: primary microglia HTS, fibrin stimulation, read-out: Fibrin % inhibition
[6] = in vitro; conditions: rat
[7] = tested on: primary rat microglia; conditions: rat
[8] = in vitro; conditions: rat, Cell Toxicity IC50 (uM) [cFib assay]
[9] = tested on: primary rat microglia; conditions: rat; remark: listed apart in the source
[10] = fibrin assay, dead cells (size <150 μm2)
[11] = fibrin stimulation, decreased size (<150 μm^2) as marker of toxicity
[12] = HTS of 1907 compounds, quadrant by fibrin and LPS inhibition
[13] = Microglia, HTS hit classification, read-out: Hit
[14] = hit classification in microglia HTS, read-out: Cherry-picked Hit (Suppl. Table 7)
[15] = quadrant by fibrin and LPS inhibition in HTS of 1907 compounds
[16] = quadrant by fibrin and LPS inhibition, HTS at 10 μM
[17] = 48 h, Table 1, dose response 0.001-20 μM, triplicates, primary rat microglia, 48 h, read-out: LPS IC50
[18] = 48 h, increased cell size (>800 μm^2) as marker of activation
[19] = LPS-induced microglia activation, dose response, read-out: LPS IC50 (uM) (Suppl. Table 7)
[20] = dose response, LPS-induced microglia activation, read-out: LPS IC50
[21] = 48 h, Table 1, dose response 0.001-20 μM, triplicates, primary rat microglia, 48 h, read-out: Fibrin IC50
[22] = dose response, fibrin-induced microglia activation, read-out: Fibrin IC50
[23] = fibrin-induced microglia activation, dose response, read-out: Fibrin IC50 (uM) (Suppl. Table 7)
[24] = increased cell size (>800 μm^2) as marker of activation
[25] = Microglia, Table 3, read-out: Cherry-picked Hit (Suppl. Table 7)
[26] = Table 3, read-out: LPS IC50 (uM) (Suppl. Table 7)
[27] = Table 3, read-out: Fibrin IC50 (uM) (Suppl. Table 7)
[28] = classification by fibrin and LPS inhibition, HTS at 10 μM
[29] = Table 6, read-out: LPS IC50 (uM) (Suppl. Table 7)
[30] = Table 6, read-out: Fibrin IC50 (uM) (Suppl. Table 7)

Compound | LPS % cell toxicity [1] [%] | Fibrin % cell toxicity [2, 11] [%] | Quadrant (FIG. 5b) [3, 12] | inhibition at 10 µM [3, 13] [%] | Quadrant (FIG. 5b) ([3]; Table 1, screen at 10 μM) | Quadrant (FIG. 5b) [3, 15] | IC50 [4, 17] [µM] | inhibition at 10 µM [4, 18] [%] | IC50 [4, 19] [µM] | IC50 [4, 20] [µM] | inhibition at 10 µM ([4]; compounds at 10 μM) [%] | IC50 [5, 21] [µM] | IC50 [5, 22] [µM] | IC50 [5, 23] [µM] | inhibition at 10 µM ([5]; compounds at 10 μM) [%] | inhibition at 10 µM [5, 24] [%] | IC50 [6] [µM] | LPS % cell toxicity [7] [%] | IC50 ([8]; cFib assay) [µM] | IC50 [1] [µM] | other results
CCN1CCCC1CNC(=O)c1cc(S(=O)(=O)CC)c(N)cc1OC (stereo not drawn) [Amisulpride, reference compound] | 1 | 2 | Q3 | > 50 | Q3 | Q3 | > 20 | 31 | > 20 | > 20 | 12 | 20 | 20 | 20 | -5 | 54 | > 20 | 0 | > 20 | – | Fibrin % cell toxicity [2, 10]: 1%; inhibition at 10 µM [3, 14]: > 50%; Quadrant (FIG. 5b) [3, 16]: Q4
C[C@H]1[C@H](OC(=O)CCC(=O)O)O[C@@H]2O[C@@]3(C)CC[C@H]4[C@H](C)CC[C@@H]1[C@@]24OO3 [Artesunate, reference compound] | 0 | 1 | Q3 | > 50 | Q3 | Q3 | > 20 | 20 | > 20 | > 20 | 7 | 7 | 7 | 7 | 47 | 63 | > 20 | 0 | > 20 | > 20 | Fibrin % cell toxicity [2, 10]: 1%; inhibition at 10 µM [3, 25]: > 50%; Quadrant (FIG. 5b) ([3]; Table 3, screen at 10 μM): Q3; Quadrant (FIG. 5b) [3, 16]: Q4; IC50 [4, 26]: > 20 µM; Fibrin Selectivity [5]: 3; Fibrin Selectivity (LOG10) [5]: 0.45; IC50 [5, 27]: 7 µM; IC50 ([8]; Table 3): > 20 µM
CC[C@H](C)[C@H](N)C1=N[C@H](C(=O)N[C@@H](CC(C)C)C(=O)N[C@H](CCC(=O)O)C(=O)N[C@H](C(=O)N[C@H]2CCCCNC(=O)[C@H](CC(N)=O)NC(=O)[C@@H](CC(=O)O)NC(=O)[C@H](Cc3cnc[nH]3)NC(=O)[C@@H](Cc3ccccc3)NC(=O)[C@H]([C@@H](C)CC)NC(=O)[C@@H](CCCN)NC2=O)[C@@H](C)CC)CS1 [Bacitracin, reference compound] ({Ileψ(thiazoline)Cys}-L[dE]IK[dOrn]I[dF]H[dD]N; lactam 4-C) | 0 | 1 | Q3 | > 50 | Q3 | Q3 | > 20 | 21 | > 20 | > 20 | 6 | > 20 | > 20 | > 20 | -7 | 82 | > 20 | 1 | > 20 | – | Fibrin % cell toxicity [2, 10]: 0%; inhibition at 10 µM [3, 14]: > 50%; Quadrant (FIG. 5b) [3, 16]: Q4
CC(=O)OCC(=O)[C@@]1(OC(C)=O)[C@@H](C)C[C@H]2[C@@H]3C[C@H](F)C4=CC(=O)C=C[C@]4(C)[C@@]3(F)[C@@H](O)C[C@@]21C [Diflorasone diacetate, reference compound] | 1 | 1 | Q3 | > 50 | Q3 | Q3 | > 20 | 39 | > 20 | > 20 | 31 | 0.01 | 0.01 | 0.01 | 42 | 76 | > 20 | 0 | > 20 | > 20 | IC50 ([1]; Table 6): > 20 µM; Fibrin % cell toxicity ([2]; fibrin assay, dead cells (size <150 μm2), compounds at 10 μM): 1%; inhibition at 10 µM [3, 25]: > 50%; Quadrant (FIG. 5b) ([3]; Table 3, screen at 10 μM): Q3; Quadrant (FIG. 5b) [3, 28]: Q4; Quadrant (FIG. 5b) ([3]; microglia HTS, Table 6): Q3; IC50 [4, 26]: > 20 µM; IC50 [4, 29]: > 20 µM; Fibrin Selectivity [5]: 2188; Fibrin Selectivity (LOG10) [5]: 3.34; IC50 [5, 27]: 0.01 µM; IC50 [5, 30]: 0.01 µM; Fibrin Selectivity (LOG10) ([5]; fibrin vs LPS, LOG10, Table 6): 3.34; Fibrin Selectivity ([5]; fibrin vs LPS, Table 6): 2188; IC50 ([8]; Table 3): > 20 µM; IC50 ([8]; cFib assay, Table 6): > 20 µM
CC(=O)O[C@@]12CO[C@@H]1C[C@H](O)[C@@]1(C)C(=O)[C@H](O)C3=C(C)[C@@H](OC(=O)[C@H](O)[C@@H](NC(=O)OC(C)(C)C)c4ccccc4)C[C@@](O)([C@@H](OC(=O)c4ccccc4)[C@H]21)C3(C)C [Docetaxel, reference compound] | – | – | Q3 | > 50 | Q3 | Q3 | > 20 | 32 | > 20 | > 20 | – | – | – | – | – | 64 | > 20 | 1 | > 20 | > 20 | IC50 ([1]; Table 6): > 20 µM; inhibition at 10 µM [3, 25]: > 50%; Quadrant (FIG. 5b) ([3]; Table 3, screen at 10 μM): Q3; Quadrant (FIG. 5b) ([3]; microglia HTS, Table 6): Q3; IC50 [4, 26]: > 20 µM; IC50 [4, 29]: > 20 µM; IC50 [5, 27]: 0.002 µM; IC50 [5, 30]: 0.002 µM; Fibrin Selectivity (LOG10) ([5]; fibrin vs LPS, LOG10, Table 6): 3.99; Fibrin Selectivity ([5]; fibrin vs LPS, Table 6): 9814; IC50 ([8]; Table 3): > 20 µM; IC50 ([8]; cFib assay, Table 6): > 20 µM
C#C[C@]1(O)CC[C@H]2[C@@H]3CCc4cc(O)ccc4[C@H]3CC[C@@]21C [Ethinyl estradiol, reference compound] | – | – | Q3 | > 50 | Q3 | Q3 | > 20 | 37 | > 20 | > 20 | 5 | > 20 | > 20 | > 20 | 9 | 58 | > 20 | – | – | – | inhibition at 10 µM [3, 14]: > 50%; Quadrant (FIG. 5b) [3, 28]: Q4; Fibrin % cell toxicity [9]: 1%; IC50 [8]: > 20 µM
Cc1cccc(C)c1N=C1NCCCS1 [Xylazine hydrochloride, reference compound] | 2 | 1 | Q2 | > 50 | Q2 | Q2 | 8 | 72 | 8 | 8 | – | 2 | 2 | 2 | – | 102 | > 20 | – | > 20 | > 20 | inhibition at 10 µM [3, 25]: > 50%; Quadrant (FIG. 5b) ([3]; Table 3, screen at 10 μM): Q2; IC50 [4, 26]: 8 µM; Fibrin Selectivity [5]: 5; Fibrin Selectivity (LOG10) [5]: 0.72; IC50 [5, 27]: 2 µM; IC50 ([8]; Table 3): > 20 µM
